Columns and labels:
[1] = Second order kinetic constants of the reactions between CC49-TCO constructs and ^177Lu-28; assay type: physicochemical; details: for Second order kinetic constant: new TCOs conjugated to CC49, reaction with ^177Lu-28, procedures of Example 5; for Second order kinetic constant, No Spacer / Second order kinetic constant, PEG10 Spacer: TCO conjugated to CC49, reaction with ^177Lu-28 in PBS, pH 7.4 at 37° C.
Protocol: Typically, 1 mg CC49 (5 mg/mL solution in PBS) was modified with 0.6 molar (for kinetic measurements) or 10 molar eq. (for in vivo studies) of TCO-NHS constructs in a total volume of 250 μL PBS. The pH was adjusted to 9 with 1 M sodium carbonate buffer. The reactions were carried out under agitation for 30 min at RT in the dark. Subsequently, the TCO-modified mAbs were extensively washed with PBS using Amicon Ultra-15 centrifugal devices. The numbers of TCO groups per antibody were determined with a tetrazine titration, outlined below.
Tetrazine-DOTA 28 was radiolabeled with carrier-added ^177Lu. mAb (25 μg) modified with ca. 0.6 molar eq. TCO was reacted with 3 molar eq. of ^177Lu-28 (0.5 nM). mAb (25 μg) modified with ca. 10 molar eq. TCO was reacted with 15 molar eq. of ^177Lu-28 (2.5 nM). The reactions were carried out in 50 μL PBS pH 7.4 at 37° C. for 10 min. The reaction mixtures were analyzed by SDS-PAGE and phosphor imager and the reaction yields were determined from the radioactivity in the bands corresponding to the mAb. The counts were quantified with AIDA Image Analyzer software (Raytest).
Tetrazine-DOTA 28 was radiolabeled with carrier-added ^177Lu at a specific activity of 3 MBq/μg. ^177Lu-28 (33 nM) was reacted with increasing concentrations of CC49 modified with 1 eq. of TCO (0.33, 1, and 1.67 μM) in 200 μL PBS, pH 7.4 at 37° C. for 5 min. At selected times (15, 30, 45, 60, 90, 120, 180, and 300 sec) a 20 μL sample was withdrawn and quenched with tetrazine 6 (FIG. 5; described in Rossin et al. Angew Chem Int Ed 2010, 49, 3375) (1.5 μL, 5 mg/mL in DMF). Aliquots of each mixture were analyzed by SDS-PAGE and phosphor imager and the cycloaddition yields were determined from the radioactivity in the bands corresponding to the mAb. The counts were quantified with AIDA Image Analyzer software (Raytest).
The newly synthesized TCO constructs were evaluated with respect to their reactivity towards tetrazine 28. The procedures are described in Example 5.

LS174T tumor model [2] = assay: Biodistribution experiments in tumor bearing mice pretargeted with CC49-TCO constructs; assay type: in vivo, Nude female Balb/C mice; details: for ^177Lu-tetrazine in Blood / ^177Lu-tetrazine in Bone / ^177Lu-tetrazine in Brain / ^177Lu-tetrazine in Heart / ^177Lu-tetrazine in Kidney / ^177Lu-tetrazine in Liver / ^177Lu-tetrazine in Lung / ^177Lu-tetrazine in Muscle / ^177Lu-tetrazine in Spleen / ^177Lu-tetrazine in Tumor: 3 h after injection
Protocol: (§1) LS174T tumor model. The human colon cancer cell line LS174T was obtained from the ATCC and maintained in Eagle's minimal essential medium (Sigma) supplemented with 10% heat inactivated fetal calf serum (Gibco), penicillin (100 U/mL), streptomycin (100 μg/mL) and 2 mM Glutamax. Nude female Balb/C mice (20-25 g body weight, Charles River Laboratories) were inoculated subcutaneously with 5×10^6 cells in 100 μL sterile PBS.
Dual isotope biodistribution experiments were performed by injecting tumor bearing mice (n=3) intravenously with ^125I-labeled CC49-TCO constructs with and without PEG10 spacer (100 μg/100 μL per mouse, ca. […] 0.8 MBq). Three hours after tetrazine administration, the animals were anesthetized with isoflurane and sacrificed by cervical dislocation. Blood was withdrawn by heart puncture and organs and tissues of interest were harvested, blotted dry and weighed. The radioactivity of the samples was measured in a γ-counter along with standards to determine the % ID/gram. The energy windows were set to 10-80 keV and 100-510 keV for ^125I and ^111In, respectively.

LS174T tumor model [3] = assay: Biodistribution of ^177Lu-tetrazine 28 in tumor bearing mice pretargeted with CC49-TCO 44b; assay type: in vivo, Nude female Balb/C mice; details: 3 h after injection, 50 h after ^125I-CC49-TCO-44b, two doses of clearing agent
Protocol: as §1
Tumor-bearing mice (see Methods; 100 mm^3 tumor size; n=4) were injected with ^125I-CC49 functionalized with 7.5 TCO 44b groups (100 μg/mouse, ca. 0.2 MBq). Thirty and 48 hours post-mAb injection the mice received one dose of clearing agent (galactose-MSA-tetrazine, 160 μg/dose) followed 2 h later by ^177Lu-tetrazine 28 (10 eq. with respect to the mAb, ca. 0.5 MBq). Three hours post-tetrazine injection the mice were anesthetized and sacrificed by cervical dislocation, blood was withdrawn by heart puncture, organs and tissues of interest were harvested and blotted dry. All collected samples were weighed and added with 1 mL PBS. The sample radioactivity was measured in a gamma-counter with a dual-isotope protocol (10-80 keV window for ^125I and 155-380 keV window for ^177Lu) along with standards to determine the percent injected dose per gram tissue (% ID/g).

[4] = 1 day pretargeting with CC49-23a
[5] = 4 days pretargeting with CC49-23a

SMILES: O=C(COC1CC/C=C/CCC1)ON1C(=O)CCC1=O (single isomer, unassigned) [44a, (E-Major)-2,5-dioxopyrrolidin-1-yl 2-(cyclooct-4-en-1-yloxy)acetate]
- Second order kinetic constant [1]: 20640 ± 485 M⁻¹ s⁻¹

SMILES: O=C(COC1CC/C=C/CCC1)ON1C(=O)CCC1=O (single isomer, unassigned) [44b, (E-Minor)-2,5-dioxopyrrolidin-1-yl 2-(cyclooct-4-en-1-yloxy)acetate]
- Second order kinetic constant [1]: 134800 ± 997 M⁻¹ s⁻¹

SMILES: O=C(ON1C(=O)CCC1=O)C(OC1CC/C=C/CCC1)c1ccccc1 (single isomer, unassigned) [46a, (E-Major)-2,5-dioxopyrrolidin-1-yl 2-(cyclooct-4-en-1-yloxy)-2-phenyl acetate]
- Second order kinetic constant [1]: 28630 ± 1590 M⁻¹ s⁻¹

SMILES: O=C(ON1C(=O)CCC1=O)C(OC1CC/C=C/CCC1)c1ccccc1 (single isomer, unassigned) [46b, (E-Minor)-2,5-dioxopyrrolidin-1-yl 2-(cyclooct-4-en-1-yloxy)-2-phenylacetate]
- Second order kinetic constant [1]: 163200 ± 2871 M⁻¹ s⁻¹

SMILES: CC(C)(OC1CC/C=C/CCC1)C(=O)ON1C(=O)CCC1=O (single isomer, unassigned) [49a, (E-Major)-2,5-dioxopyrrolidin-1-yl 2-(cyclooct-4-en-1-yloxy)-2-methylpropanoate]
- Second order kinetic constant [1]: 25080 ± 3865 M⁻¹ s⁻¹

SMILES: CC(C)(OC1CC/C=C/CCC1)C(=O)ON1C(=O)CCC1=O (single isomer, unassigned) [49b, (E-Minor)-2,5-dioxopyrrolidin-1-yl 2-(cyclooct-4-en-1-yloxy)-2-methylpropanoate]
- Second order kinetic constant [1]: 148500 ± 12040 M⁻¹ s⁻¹

SMILES: O=C(ON1C(=O)CCC1=O)c1ccc(OC2CC/C=C/CCC2)cc1 (single isomer, unassigned) [52a, (E-Major)-2,5-dioxopyrrolidin-1-yl 4-(cyclooct-4-en-1-yloxy)benzoate]
- Second order kinetic constant [1]: 20930 ± 3735 M⁻¹ s⁻¹

SMILES: O=C(ON1C(=O)CCC1=O)c1ccc(OC2CC/C=C/CCC2)cc1 (single isomer, unassigned) [52b, (E-Minor)-2,5-dioxopyrrolidin-1-yl 4-(cyclooct-4-en-1-yloxy)benzoate]
- Second order kinetic constant [1]: 333300 ± 625 M⁻¹ s⁻¹

SMILES: O=C(Nc1ccc(C(=O)ON2C(=O)CCC2=O)cc1)OC1CC/C=C/CCC1 (centres unmarked) [14a, (E-major)-2,5-dioxopyrrolidin-1-yl 4-(((cyclooct-4-en-1-yloxy)carbonyl)amino)benzoate]
- Second order kinetic constant, No Spacer [1]: (14a) 11350 ± 550 M^−1s^−1

SMILES: O=C(Nc1ccc(C(=O)ON2C(=O)CCC2=O)cc1)OC1CC/C=C/CCC1 (centres unmarked) [14b, (E-minor)-2,5-dioxopyrrolidin-1-yl 4-(((cyclooct-4-en-1-yloxy)carbonyl)amino)benzoate]
- Second order kinetic constant, No Spacer [1]: (14b) 66550 ± 8800 M^−1s^−1

SMILES: O=C(CCOCCOCCOCCOCCOCCOCCOCCOCCOCCOCCOCCOCCNC(=O)c1ccc(COC2CC/C=C/CCC2)cc1)ON1C(=O)CCC1=O (centres unmarked) [23b, (E-minor)-2,5-Dioxopyrrolidin-1-yl 1-(4-((cyclooct-4-en-1-yloxy)methyl)phenyl)-1-oxo-5,8,11,14,17,20,23,26,29,32,35,38-dodecaoxa-2-azahentetracontan-41-oate]
- Second order kinetic constant, PEG10 Spacer [1]: (23b) 156400 ± 3100 M^−1s^−1

SMILES: O=C(CCOCCOCCOCCOCCOCCOCCOCCOCCOCCOCCOCCOCCNC(=O)c1ccc(NC(=O)OC2CC/C=C/CCC2)cc1)ON1C(=O)CCC1=O (centres unmarked) [27a, (E-major)-2,5-dioxopyrrolidin-1-yl 1-(4-(((cyclooct-4-en-1-yloxy)carbonyl)amino)phenyl)-1-oxo-5,8,11,14,17,20,23,26,29,32,35,38-dodecaoxa-2-azahentetracontan-41-oate]
- Second order kinetic constant, PEG10 Spacer [1]: (27a) 11030 ± 250 M^−1s^−1

SMILES: O=C([O-])CN1CCN(CC(=O)[O-])CCN(CC(=O)NCCOCCOCCOCCOCCOCCOCCOCCOCCOCCOCCOCCNC(=O)CCCC(=O)Nc2ccc(-c3nnc(-c4ccccn4)nn3)nc2)CCN(CC(=O)[O-])CC1.[177Lu+3] [^177Lu-tetrazine 28]
- ^177Lu-tetrazine in Blood (LS174T tumor model [2]; [4]): 1.06 ± 0.34 % ID/gram
- ^177Lu-tetrazine in Bone (LS174T tumor model [2]; [4]): 0.11 ± 0.02 % ID/gram
- ^177Lu-tetrazine in Brain (LS174T tumor model [2]; [4]): 0.03 ± 0.02 % ID/gram
- ^177Lu-tetrazine in Heart (LS174T tumor model [2]; [4]): 0.20 ± 0.02 % ID/gram
- ^177Lu-tetrazine in Kidney (LS174T tumor model [2]; [4]): 1.73 ± 0.31 % ID/gram
- ^177Lu-tetrazine in Liver (LS174T tumor model [2]; [4]): 0.61 ± 0.15 % ID/gram
- ^177Lu-tetrazine in Lung (LS174T tumor model [2]; [4]): 0.32 ± 0.03 % ID/gram
- ^177Lu-tetrazine in Muscle (LS174T tumor model [2]; [4]): 0.06 ± 0.03 % ID/gram
- ^177Lu-tetrazine in Spleen (LS174T tumor model [2]; [4]): 0.30 ± 0.09 % ID/gram
- ^177Lu-tetrazine in Tumor (LS174T tumor model [2]; [4]): 3.09 ± 0.01 % ID/gram
- ^177Lu-tetrazine in Tumor (LS174T tumor model [2]; 1 day pretargeting with CC49-23a, listed as 177Lu-tetrazine): 3.09±0.01 % ID/gram
- ^177Lu-tetrazine in Blood (LS174T tumor model [2]; [5]): 0.04 ± 0.01 % ID/gram
- ^177Lu-tetrazine in Bone (LS174T tumor model [2]; [5]): 0.06 ± 0.01 % ID/gram
- ^177Lu-tetrazine in Brain (LS174T tumor model [2]; [5]): 0.01 ± 0.00 % ID/gram
- ^177Lu-tetrazine in Heart (LS174T tumor model [2]; [5]): 0.04 ± 0.00 % ID/gram
- ^177Lu-tetrazine in Kidney (LS174T tumor model [2]; [5]): 1.73 ± 0.22 % ID/gram
- ^177Lu-tetrazine in Liver (LS174T tumor model [2]; [5]): 0.31 ± 0.03 % ID/gram
- ^177Lu-tetrazine in Lung (LS174T tumor model [2]; [5]): 0.13 ± 0.05 % ID/gram
- ^177Lu-tetrazine in Muscle (LS174T tumor model [2]; [5]): 0.02 ± 0.01 % ID/gram
- ^177Lu-tetrazine in Spleen (LS174T tumor model [2]; [5]): 0.20 ± 0.00 % ID/gram
- ^177Lu-tetrazine in Tumor (LS174T tumor model [2]; [5]): 0.86 ± 0.39 % ID/gram
- ^177Lu-tetrazine in Tumor (LS174T tumor model [2]; 4 days pretargeting with CC49-23a, listed as 177Lu-tetrazine): 0.86±0.39 % ID/gram
- tumor-to-blood ratio (T/B) (LS174T tumor model [2]; ^177Lu-tetrazine administered 4 days after the mAb CC49-23a): 21.3±4.0
- tumor-to-blood ratio (T/B) (LS174T tumor model [2]; ^177Lu-tetrazine, mice pre-treated with CC49-23a 24 h before injection of the tetrazine): 3.1±1.0
- Tumor/Blood ratio, ^177Lu-tetrazine (LS174T tumor model [3]): 304 ± 80
- Tumor/Bone ratio, ^177Lu-tetrazine (LS174T tumor model [3]): 142 ± 59
- Tumor/Brain ratio, ^177Lu-tetrazine (LS174T tumor model [3]): 1674 ± 243
- Tumor/Heart ratio, ^177Lu-tetrazine (LS174T tumor model [3]): 187 ± 20
- Tumor/Kidney ratio, ^177Lu-tetrazine (LS174T tumor model [3]): 6 ± 2
- Tumor/Liver ratio, ^177Lu-tetrazine (LS174T tumor model [3]): 50 ± 10
- Tumor/Lung ratio, ^177Lu-tetrazine (LS174T tumor model [3]): 39 ± 8
- Tumor/Muscle ratio, ^177Lu-tetrazine (LS174T tumor model [3]): 328 ± 96
- Tumor/Spleen ratio, ^177Lu-tetrazine (LS174T tumor model [3]): 108 ± 22
- ^177Lu-tetrazine in Blood (LS174T tumor model [3]): 0.03 ± 0.00 % ID/gram
- ^177Lu-tetrazine in Bone (LS174T tumor model [3]): 0.08 ± 0.04 % ID/gram
- ^177Lu-tetrazine in Brain (LS174T tumor model [3]): 0.01 ± 0.00 % ID/gram
- ^177Lu-tetrazine in Heart (LS174T tumor model [3]): 0.05 ± 0.01 % ID/gram
- ^177Lu-tetrazine in Kidney (LS174T tumor model [3]): 1.50 ± 0.24 % ID/gram
- ^177Lu-tetrazine in Liver (LS174T tumor model [3]): 0.19 ± 0.02 % ID/gram
- ^177Lu-tetrazine in Lung (LS174T tumor model [3]): 0.24 ± 0.02 % ID/gram
- ^177Lu-tetrazine in Muscle (LS174T tumor model [3]): 0.03 ± 0.00 % ID/gram
- ^177Lu-tetrazine in Spleen (LS174T tumor model [3]): 0.09 ± 0.01 % ID/gram
- ^177Lu-tetrazine in Tumor (LS174T tumor model [3]): 9.25 ± 2.16 % ID/gram

SMILES: CC1(CC(=O)ON2C(=O)CCC2=O)CC/C=C/CCC1 (centres unmarked) [compound 58, (E-Major,minor)-2,5-Dioxopyrrolidin-1-yl 2-(1-methylcyclooct-4-en-1-yl)acetate]
- Second order kinetic constant [1]: 323500 ± 43320 M⁻¹ s⁻¹
